Reference: patent publication US5155130A, “Certain benzopyran and benzothiopyran derivatives” (Ciba-Geigy Corporation, priority 1990, dated 1992)

How the values were obtained:
5-lipoxygenase [1] = molecular target: T1, 5-lipoxygenase (Cavia porcellus, UniProt A0A286X958); experiment: Inhibition of 5-HETE and LTB4 synthesis in A-23187-stimulated guinea pig polymorphonuclear leukocytes; format: cell-based; conditions: read-out: IC50 for inhibition of the formation of 5-HETE and leukotriene B4 (LTB4)
T1 construct: A-23187-stimulated guinea pig polymorphonuclear leukocytes; endogenous in cells; host or cells: guinea pig polymorphonuclear leukocytes
T1 sequence (A0A286X958 1-674): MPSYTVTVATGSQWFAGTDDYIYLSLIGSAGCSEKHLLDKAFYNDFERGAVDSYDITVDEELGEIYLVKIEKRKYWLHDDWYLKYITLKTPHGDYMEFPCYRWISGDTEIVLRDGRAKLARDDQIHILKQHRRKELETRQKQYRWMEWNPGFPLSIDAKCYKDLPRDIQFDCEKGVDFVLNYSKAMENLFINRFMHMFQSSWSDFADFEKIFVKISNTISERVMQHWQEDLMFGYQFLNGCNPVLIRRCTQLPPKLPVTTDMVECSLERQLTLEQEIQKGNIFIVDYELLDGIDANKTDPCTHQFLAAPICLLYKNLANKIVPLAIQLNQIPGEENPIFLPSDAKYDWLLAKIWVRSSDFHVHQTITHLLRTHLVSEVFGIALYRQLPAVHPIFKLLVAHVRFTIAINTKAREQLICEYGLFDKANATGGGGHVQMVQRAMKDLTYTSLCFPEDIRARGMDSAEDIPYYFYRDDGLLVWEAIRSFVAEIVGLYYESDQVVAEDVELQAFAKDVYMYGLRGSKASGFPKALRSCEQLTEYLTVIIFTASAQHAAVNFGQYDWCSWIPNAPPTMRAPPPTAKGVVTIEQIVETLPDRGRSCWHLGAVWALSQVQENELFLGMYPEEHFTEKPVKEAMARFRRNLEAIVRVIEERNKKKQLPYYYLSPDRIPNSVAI
Experimental: 5-Lipoxygenase inhibition is determined e.g. by measuring the percent inhibition of the synthesis of 5-HETE [(5S)-5-hydroxy-6,8,11,14-eicosa-tetraenoic acid] and leukotriene B4 (LTB4, 5,12-dihydroxy-6,8,10,14-eicosatetraenoic acid) in A-23187-stimulated guinea pig polymorphonuclear leukocytes, essentially according to radiometric thin-layer chromatographic assays described by Walker and Dawson (J. Pharm. Pharmacol. 31: 778, 1979) and Jakschik and Lee (Nature 287: 51, 1980) to measure the formation of 5-HETE and LTB4 -like products from ^14 C-arachidonic acid. IC50 values are determined graphically as the concentration of test compound at which the synthesis of 5-HETE and LTB4 -like products is reduced to 50% of their respective control values.

[2] = tested on: rat pleurisy model of inflammation; experiment: Carrageenin-induced pleurisy model of inflammation; format: in vivo; conditions: 10 mg/kg p.o. at -1, 6, 24 and 45 hours relative to carrageenin injection, 48 hours after injection
Source text: 214, 74 (1980), in particular during the late phase of the corrageenin-induced pleurisy.

5-lipoxygenase [3] = experiment: Ex vivo A-23187-stimulated LTB4 formation in whole blood after oral administration; conditions: dog, about 0.3 mg/kg p.o.
Experimental: Furthermore, the inhibition of 5-lipoxygenase is determined after oral or i.v. administration to rats or dogs by measuring ex vivo in whole blood the decrease of A-23187-stimulated LTB4 formation as compared to non-treated control animals.

[4] = tested on: rat chronic colitis model; experiment: Trinitrobenzenesulfonic acid-induced chronic colitis model; format: in vivo; conditions: 100 mg/kg p.o. for 4 days
Source text: The trinitrobenzenesulfonic acid-induced chronic colitis test in the rat, e.g. as described by Wallace et al, Gastroenterology 1989, 96, 29-36, can be used to evaluate compounds for effects indicative of utility in inflammatory bowel diseases.

| Compound | IC50 (5-lipoxygenase [1]) [nM] | cell count of leukocytes [2] | inhibition of exudate volume [2] | inhibition of LTB4 formation as determined ex vivo (5-lipoxygenase [3]) | inhibition of colitis [4] |
| --- | --- | --- | --- | --- | --- |
| NC(=O)N(O)CC1=Cc2cc(Oc3ccccc3)ccc2OC1 [2(d), 3-[(N-Aminocarbonyl-N-hydroxy)aminomethyl]-6-phenoxy-2H-1-benzopyran] | ~50 | lower | inhibition | significant inhibition | inhibits colitis |
| CNC(=O)N(O)CC1=Cc2cc(Oc3ccc(F)cc3)ccc2OC1 [5(f), 3-[{N-(N'-methylaminocarbonyl)-N-hydroxy}aminomethyl]-6-(p-fluorophenoxy)-2H-1-benzopyran] | – | lower | inhibition | significant inhibition | – |
